Reference: patent US20220117993A1, “Compounds Useful in HIV Therapy” (GlaxoSmithKline Intellectual Property (No. 2) Limited, priority 2018, published 2022)
Read-outs that look alike come from different tables or passages of the source.

Legend:
[1] = system: wild-type NL4-3 replication defective pseudovirus (PSV); assay: microbe, parasite or virus in culture; type: cell-based; conditions: NL43, 72 h, U373 cells expressing human CD4 and CXCR4 or CCR5, luciferase signal after 3 days, mean IC50, read-out: WT IC50
[2] = target: PSV with methionine 184 to valine (M184V) substitution in the reverse transcriptase gene; assay: microbe, parasite or virus in culture; type: cell-based, HIV; conditions: read-out: M184V IC50
[3] = Human immunodeficiency virus 1, 72 h

SMILES	IC50 [1] [µM]	IC50 ([2]; U373 cells expressing human CD4 and CXCR4 or CCR5, luciferase signal after 3 days, mean IC50) [µM]	IC50 [2, 3] [µM]
C#C[C@]1(CO)O[C@@H](n2cnc3c(N)nc(F)nc32)C[C@@H]1O [EFdA, 4′-ethynyl-2-fluoro-2′-deoxyadenosine, reference compound]	0.0065	0.0351	
C#C[C@]1(CO)O[C@@H](n2cnc3c(N)nc(F)nc32)C[C@@H]1OC(C)=O [Example 1, (2R,3S,5R)-5-(6-amino-2-fluoro-9H-purin-9-yl)-2-ethynyl-2-(hydroxymethyl)tetrahydrofuran-3-yl acetate]	0.105		0.538
C#C[C@]1(CO)O[C@@H](n2cnc3c(N)nc(F)nc32)C[C@@H]1OC(=O)CCCCCCCCCCCCC [Example 2, (2R,3S,5R)-5-(6-amino-2-fluoro-9H-purin-9-yl)-2-ethynyl-2-(hydroxymethyl)tetrahydrofuran-3-yl tetradecanoate]	0.0015		0.0078
C#C[C@]1(CO)O[C@@H](n2cnc3c(N)nc(F)nc32)C[C@@H]1OC(=O)CCCCCCCCC [Example 3, (2R,3S,5R)-5-(6-amino-2-fluoro-9H-purin-9-yl)-2-ethynyl-2-(hydroxymethyl)tetrahydrofuran-3-yl decanoate]	0.0013		0.007
C#C[C@]1(CO)O[C@@H](n2cnc3c(N)nc(F)nc32)C[C@@H]1OC(=O)CCCCCC [Example 4, (2R,3S,5R)-5-(6-amino-2-fluoro-9H-purin-9-yl)-2-ethynyl-2-(hydroxymethyl)tetrahydrofuran-3-yl heptanoate]	0.0041		0.024
C#C[C@]1(CO)O[C@@H](n2cnc3c(N)nc(F)nc32)C[C@@H]1OC(=O)C(CCC)CCC [Example 5, (2R,3S,5R)-5-(6-amino-2-fluoro-9H-purin-9-yl)-2-ethynyl-2-(hydroxymethyl)tetrahydrofuran-3-yl 2-propylpentanoate]	0.0355		0.168
C#C[C@]1(CO)O[C@@H](n2cnc3c(N)nc(F)nc32)C[C@@H]1OC(=O)CCCCCCCCCCCCCCCCCCC [Example 6, (2R,3S,5R)-5-(6-amino-2-fluoro-9H-purin-9-yl)-2-ethynyl-2-(hydroxymethyl)tetrahydrofuran-3-yl icosanoate]	0.635		3.28
C#C[C@]1(CO)O[C@@H](n2cnc3c(N)nc(F)nc32)C[C@@H]1OC(=O)CCCCCCC/C=C\C/C=C\C/C=C\CC [Example 7, (9Z,12Z,15Z)-(2R,3S,5R)-5-(6-amino-2-fluoro-9H-purin-9-yl)-2-ethynyl-2-(hydroxymethyl)tetrahydrofuran-3-yl octadeca-9,12,15-trienoate]	0.0071		0.0364
C#C[C@]1(CO)O[C@@H](n2cnc3c(NC(=O)OCC)nc(F)nc32)C[C@@H]1OC(=O)CCCCCCCCC [Example 8, (2R,3S,5R)-5-(6-((ethoxycarbonyl)amino)-2-fluoro-9H-purin-9-yl)-2-ethynyl-2-(hydroxymethyl)tetrahydrofuran-3-yl decanoate]	0.165		0.46
C#C[C@]1(COC(=O)OCC)O[C@@H](n2cnc3c(N)nc(F)nc32)C[C@@H]1OC(=O)CCCCCCCCC [Example 9, (2R,3S,5R)-5-(6-amino-2-fluoro-9H-purin-9-yl)-2-(((ethoxycarbonyl)oxy)methyl)-2-ethynyltetrahydrofuran-3-yl decanoate]	0.0114		0.053
C#C[C@]1(CO)O[C@@H](n2cnc3c(N)nc(F)nc32)C[C@@H]1OC(=O)Cc1ccccc1 [Example 10, (2R,3S,5R)-5-(6-amino-2-fluoro-9H-purin-9-yl)-2-ethynyl-2-(hydroxymethyl)tetrahydrofuran-3-yl 2-phenylacetate]	0.0072		0.0262
C#C[C@]1(CO)O[C@@H](n2cnc3c(N)nc(F)nc32)C[C@@H]1OC(=O)C(C)CCCCC (stereo partly drawn) [Example 11, (2R,3S,5R)-5-(6-amino-2-fluoro-9H-purin-9-yl)-2-ethynyl-2-(hydroxymethyl)tetrahydrofuran-3-yl 2-methylheptanoate]	0.0029		0.017
C#C[C@]1(CO)O[C@@H](n2cnc3c(N)nc(F)nc32)C[C@@H]1OC(=O)[C@H]1CC[C@H](CCCCC)CC1 [Example 12, (2R,3S,5R)-5-(6-amino-2-fluoro-9H-purin-9-yl)-2-ethynyl-2-(hydroxymethyl)tetrahydrofuran-3-yl (1s,4S)-4-pentylcyclohexane-1-carboxylate]	0.0018		0.0107
C#C[C@]1(CO)O[C@@H](n2cnc3c(N)nc(F)nc32)C[C@@H]1OC(=O)C(C)(C)C [Example 13, (2R,3S,5R)-5-(6-amino-2-fluoro-9H-purin-9-yl)-2-ethynyl-2-(hydroxymethyl)tetrahydrofuran-3-yl pivalate]	0.263		1.28
C#C[C@]1(CO)O[C@@H](n2cnc3c(NC(=O)CCCCCCCCCCCCC)nc(F)nc32)C[C@@H]1OC(C)=O [Example 14, (2R,3S,5R)-2-ethynyl-5-(2-fluoro-6-tetradecanamido-9H-purin-9-yl)-2-(hydroxymethyl)tetrahydrofuran-3-yl acetate]	0.0114		0.068
C#C[C@]1(CO)O[C@@H](n2cnc3c(N)nc(F)nc32)C[C@@H]1OC(=O)C(CCCCCC)CCCCCCCC (stereo partly drawn) [Example 15, (2R,3S,5R)-5-(6-amino-2-fluoro-9H-purin-9-yl)-2-ethynyl-2-(hydroxymethyl)tetrahydrofuran-3-yl 2-hexyldecanoate]	0.555		3.12
C#C[C@]1(CO)O[C@@H](n2cnc3c(N)nc(F)nc32)C[C@@H]1OC(=O)C1CCCCC1 [Example 16, (2R,3S,5R)-5-(6-amino-2-fluoro-9H-purin-9-yl)-2-ethynyl-2-(hydroxymethyl)tetrahydrofuran-3-yl cyclohexanecarboxylate]	0.0039		0.019
C#C[C@]1(CO)O[C@@H](n2cnc3c(N)nc(F)nc32)C[C@@H]1OC(=O)C(CCCC)CCCCCC (stereo partly drawn) [Example 17, (2R,3S,5R)-5-(6-amino-2-fluoro-9H-purin-9-yl)-2-ethynyl-2-(hydroxymethyl)tetrahydrofuran-3-yl 2-butyloctanoate]	0.145		0.598
C#C[C@]1(CO)O[C@@H](n2cnc3c(N)nc(F)nc32)C[C@@H]1OC(=O)C(C)(C)CCC [Example 18, (2R,3S,5R)-5-(6-amino-2-fluoro-9H-purin-9-yl)-2-ethynyl-2-(hydroxymethyl)tetrahydrofuran-3-yl 2,2-dimethylpentanoate]	0.0464		0.168
C#C[C@]1(CO)O[C@@H](n2cnc3c(N)nc(F)nc32)C[C@@H]1OC(=O)c1ccccc1 [Example 19, (2R,3S,5R)-5-(6-amino-2-fluoro-9H-purin-9-yl)-2-ethynyl-2-(hydroxymethyl)tetrahydrofuran-3-yl benzoate]	0.0408		0.197
C#C[C@]1(CO)O[C@@H](n2cnc3c(N)nc(F)nc32)C[C@@H]1OC(=O)CCC [Example 20, (2R,3S,5R)-5-(6-amino-2-fluoro-9H-purin-9-yl)-2-ethynyl-2-(hydroxymethyl)tetrahydrofuran-3-yl butyrate]	0.0277		0.123
C#C[C@]1(CO)O[C@@H](n2cnc3c(N)nc(F)nc32)C[C@@H]1OC(=O)[C@H]1CC[C@H](C(C)(C)C)CC1 [Example 22, (2R,3S,5R)-5-(6-amino-2-fluoro-9H-purin-9-yl)-2-ethynyl-2-(hydroxymethyl)tetrahydrofuran-3-yl (1r,4S)-4-(tert-butyl)cyclohexane-1-carboxylate]	0.0026		0.0093
C#C[C@]1(COC(=O)OCCCCCC)O[C@@H](n2cnc3c(N)nc(F)nc32)C[C@@H]1OC(=O)CCCCCCCCCCCCC [Example 23, (2R,3S,5R)-5-(6-amino-2-fluoro-9H-purin-9-yl)-2-ethynyl-2-((((hexyloxy)carbonyl)oxy)methyl)tetrahydrofuran-3-yl tetradecanoate]	1.09		1.13
C#C[C@]1(COC(=O)OCC)O[C@@H](n2cnc3c(N)nc(F)nc32)C[C@@H]1OC(=O)CCCCCCCCCCCCCCCCC [Example 24, (2R,3S,5R)-5-(6-amino-2-fluoro-9H-purin-9-yl)-2-(((ethoxycarbonyl)oxy)methyl)-2-ethynyltetrahydrofuran-3-yl stearate]	1.27		2.12
C#C[C@]1(CO)O[C@@H](n2cnc3c(NC(=O)CCCCCC)nc(F)nc32)C[C@@H]1OC(=O)CCCCCC [Example 25, (2R,3S,5R)-2-ethynyl-5-(2-fluoro-6-heptanamido-9H-purin-9-yl)-2-(hydroxymethyl)tetrahydrofuran-3-yl heptanoate]	0.0094		0.0439
C#C[C@]1(CO)O[C@@H](n2cnc3c(NC(=O)CCC)nc(F)nc32)C[C@@H]1OC(=O)CCC [Example 26, (2R,3S,5R)-5-(6-butyramido-2-fluoro-9H-purin-9-yl)-2-ethynyl-2-(hydroxymethyl)tetrahydrofuran-3-yl butyrate]	0.102		0.465
C#C[C@]1(CO)O[C@@H](n2cnc3c(NC(=O)CCCCCCCCC)nc(F)nc32)C[C@@H]1OC(=O)CCCCCCCCC [Example 27, (2R,3S,5R)-5-(6-decanamido-2-fluoro-9H-purin-9-yl)-2-ethynyl-2-(hydroxymethyl)tetrahydrofuran-3-yl decanoate]	0.0068		0.0286
C#C[C@]1(CO)O[C@@H](n2cnc3c(NC(=O)CCCCCCCCCCCCC)nc(F)nc32)C[C@@H]1OC(=O)CC(C)(C)c1c(C)cc(C)cc1OC(C)=O [Example 28, (2R,3S,5R)-2-ethynyl-5-(2-fluoro-6-tetradecanamido-9H-purin-9-yl)-2-(hydroxymethyl)tetrahydrofuran-3-yl 3-(2-acetoxy-4,6-dimethylphenyl)-3-methylbutanoate]	0.0415		0.153
